From ChEMBL document CHEMBL6078630, “Design, synthesis, and bioactivity investigation of novel cyclic lipopeptide antibiotics targeting top-priority multidrug-resistant gram-negative bacteria” (Eur J Med Chem, 2024)
Values after ≈ are worked out from the molar mass of the structure shown. Bridge positions count the residues as written; N and C are the ends. Square brackets hold non-standard residues; d marks the D form. Peptide text beside a SMILES is read from it. * marks the point of attachment. Heptanoyl(6-Me) = CC(C)CCCCC(=O)*; dNle = CCCC[C@@H](N)C(=O)O; Octanoyl = CCCCCCCC(=O)*; Orn = NCCC[C@H](N)C(=O)O; Dab = NCC[C@H](N)C(=O)O

How the values were obtained:
[1] = test system: Escherichia coli; assay: Antibacterial activity against Escherichia coli ATCC BAA-2523 assessed as inhibition of bacterial growth incubated for 16 to 20 hrs by CLSI protocol based broth microdilution method; assay type: functional; conditions: time 16-20 hrs
[2] = test system: Escherichia coli; assay: Antibacterial activity against carbapenem-resistant Escherichia coli ATCC BAA-2340 assessed as inhibition of bacterial growth incubated for 16 to 20 hrs by CLSI protocol based broth microdilution method; assay type: functional; conditions: time 16-20 hrs
[3] = test system: Klebsiella pneumoniae; assay: Antibacterial activity against carbapenem-resistant Klebsiella pneumoniae clinical isolate KPN+19-15 assessed as inhibition of bacterial growth incubated for 16 to 20 hrs by CLSI protocol based broth microdilution method; assay type: functional; conditions: time 16-20 hrs
[4] = test system: Klebsiella pneumoniae; assay: Antibacterial activity against carbapenem-resistant Klebsiella pneumoniae ATCC BAA-1705 assessed as inhibition of bacterial growth incubated for 16 to 20 hrs by CLSI protocol based broth microdilution method; assay type: functional; conditions: time 16-20 hrs
[5] = test system: Pseudomonas aeruginosa; assay: Antibacterial activity against carbapenem-resistant Pseudomonas aeruginosa clinical isolate 19-3 assessed as inhibition of bacterial growth incubated for 16 to 20 hrs by CLSI protocol based broth microdilution method; assay type: functional; conditions: time 16-20 hrs
[6] = test system: Pseudomonas aeruginosa; assay: Antibacterial activity against Pseudomonas aeruginosa ATCC 27853 assessed as inhibition of bacterial growth incubated for 16 to 20 hrs by CLSI protocol based broth microdilution method; assay type: functional; conditions: time 16-20 hrs
[7] = test system: Acinetobacter baumannii; assay: Antibacterial activity against carbapenem-sensitive Acinetobacter baumannii clinical isolate 19-1 assessed as inhibition of bacterial growth incubated for 16 to 20 hrs by CLSI protocol based broth microdilution method; assay type: functional; conditions: time 16-20 hrs
[8] = test system: Acinetobacter baumannii; assay: Antibacterial activity against Acinetobacter baumannii NCTC 13304 (OXA-27) assessed as inhibition of bacterial growth incubated for 16 to 20 hrs by CLSI protocol based broth microdilution method; assay type: functional; conditions: time 16-20 hrs
[9] = Renal cytotoxicity against HK-2 cells incubated for 72 hrs by CCK8 assay; assay type: toxicity, cell-based; conditions: human

CC(C)CCCCC(=O)N[C@@H](CCCN)C(=O)N[C@H](C(=O)N[C@H](CO)C(=O)N[C@H]1CCNC(=O)[C@H]([C@@H](C)O)NC(=O)[C@H](CCN)NC(=O)[C@H](CCN)NC(=O)[C@H]([C@@H](C)O)NC(=O)[C@@H](Cc2ccccc2)NC(=O)[C@H](CCN)NC1=O)[C@@H](C)O ({Heptanoyl(6-Me)}-[Orn]T[dS][Dab][Dab][dF]T[Dab][Dab]T; lactam 4-C)
MIC [1]: 0.25 µg/mL (≈ 0.212 µM)
MIC [2]: 0.25 µg/mL (≈ 0.212 µM)
MIC [3]: 0.5 µg/mL (≈ 0.424 µM)
MIC [4]: 0.5 µg/mL (≈ 0.424 µM)
MIC [5]: 64 µg/mL (≈ 54.3 µM)
MIC [6]: > 64 µg/mL
MIC [7]: 4 µg/mL (≈ 3.39 µM)
MIC [8]: 4 µg/mL (≈ 3.39 µM)
IC50 at 72 h [9]: > 500 µg/mL

C[C@@H](O)[C@@H]1NC(=O)[C@H](CCN)NC(=O)[C@H](CCN)NC(=O)[C@H]([C@@H](C)O)NC(=O)[C@H](Cc2ccccc2)NC(=O)[C@H](CCN)NC(=O)[C@@H](NC(=O)[C@@H](CO)NC(=O)[C@@H](NC(=O)[C@H](CCN)NC(=O)CCCCCCC(=O)O)[C@@H](C)O)CCNC1=O
MIC [1]: ≤ 0.03 µg/mL
MIC [2]: ≤ 0.03 µg/mL
MIC [3]: ≤ 0.03 µg/mL
MIC [4]: 0.06 µg/mL (≈ 0.0502 µM)
MIC [5]: 4 µg/mL (≈ 3.35 µM)
MIC [6]: 4 µg/mL (≈ 3.35 µM)
MIC [7]: 0.06 µg/mL (≈ 0.0502 µM)
MIC [8]: ≤ 0.03 µg/mL
IC50 at 72 h [9]: > 500 µg/mL

CC(C)CCCCC(=O)N[C@@H](CCN)C(=O)N[C@H](C(=O)N[C@@H](CCCN)C(=O)N[C@H]1CCNC(=O)[C@H]([C@@H](C)O)NC(=O)[C@H](CCN)NC(=O)[C@H](CCN)NC(=O)[C@H]([C@@H](C)O)NC(=O)[C@@H](Cc2ccccc2)NC(=O)[C@H](CCN)NC1=O)[C@@H](C)O ({Heptanoyl(6-Me)}-[Dab]T[Orn][Dab][Dab][dF]T[Dab][Dab]T; lactam 4-C)
MIC [1]: ≤ 0.03 µg/mL
MIC [2]: ≤ 0.03 µg/mL
MIC [3]: ≤ 0.03 µg/mL
MIC [4]: ≤ 0.03 µg/mL
MIC [5]: 0.25 µg/mL (≈ 0.21 µM)
MIC [6]: ≤ 0.03 µg/mL
MIC [7]: 0.125 µg/mL (≈ 0.105 µM)
MIC [8]: 0.06 µg/mL (≈ 0.0504 µM)
IC50 at 72 h [9]: > 500 µg/mL

CC(C)CCCCC(=O)N[C@@H](CCN)C(=O)N[C@H](C(=O)N[C@H](CO)C(=O)N[C@H]1CCNC(=O)[C@H]([C@@H](C)O)NC(=O)[C@H](CCN)NC(=O)[C@H](CCCN)NC(=O)[C@H]([C@@H](C)O)NC(=O)[C@@H](Cc2ccccc2)NC(=O)[C@H](CCN)NC1=O)[C@@H](C)O ({Heptanoyl(6-Me)}-[Dab]T[dS][Dab][Dab][dF]T[Orn][Dab]T; lactam 4-C)
MIC [1]: 0.125 µg/mL (≈ 0.106 µM)
MIC [2]: 0.06 µg/mL (≈ 0.0509 µM)
MIC [3]: 0.125 µg/mL (≈ 0.106 µM)
MIC [4]: 0.25 µg/mL (≈ 0.212 µM)
MIC [5]: 8 µg/mL (≈ 6.79 µM)
MIC [6]: 4 µg/mL (≈ 3.39 µM)
MIC [7]: 0.125 µg/mL (≈ 0.106 µM)
MIC [8]: 0.125 µg/mL (≈ 0.106 µM)
IC50 at 72 h [9]: > 500 µg/mL

CCCCCCCC(=O)N[C@@H](CCN)C(=O)N[C@H](C(=O)N[C@@H](CCN)C(=O)N[C@H]1CCNC(=O)[C@H]([C@@H](C)O)NC(=O)[C@H](CCN)NC(=O)[C@H](CCN)NC(=O)[C@H]([C@@H](C)O)NC(=O)[C@@H](CC(C)C)NC(=O)[C@H](CCN)NC1=O)[C@@H](C)O (Octanoyl-[Dab]T[Dab][Dab][Dab][dL]T[Dab][Dab]T; lactam 4-C) [listing 1 of 2 here]
IC50 at 72 h [9]: > 500 µg/mL

CCCCCCCC(=O)N[C@@H](CCN)C(=O)N[C@H](C(=O)N[C@@H](CCN)C(=O)N[C@H]1CCNC(=O)[C@H]([C@@H](C)O)NC(=O)[C@H](CCN)NC(=O)[C@H](CCN)NC(=O)[C@H]([C@@H](C)O)NC(=O)[C@@H](CCC)NC(=O)[C@H](CCN)NC1=O)[C@@H](C)O [listing 1 of 2 here]
IC50 at 72 h [9]: > 500 µg/mL

CCCCCCCC(=O)N[C@@H](CCN)C(=O)N[C@H](C(=O)N[C@@H](CCN)C(=O)N[C@H]1CCNC(=O)[C@H]([C@@H](C)O)NC(=O)[C@H](CCN)NC(=O)[C@H](CCN)NC(=O)[C@H]([C@@H](C)O)NC(=O)[C@@H](CCCC)NC(=O)[C@H](CCN)NC1=O)[C@@H](C)O (Octanoyl-[Dab]T[Dab][Dab][Dab][dNle]T[Dab][Dab]T; lactam 4-C) [listing 1 of 2 here]
IC50 at 72 h [9]: > 500 µg/mL

CCCCCCCC(=O)N[C@@H](CCN)C(=O)N[C@H](C(=O)N[C@@H](CCN)C(=O)N[C@H]1CCNC(=O)[C@H]([C@@H](C)O)NC(=O)[C@H](CCN)NC(=O)[C@H](CCN)NC(=O)[C@H]([C@@H](C)O)NC(=O)[C@@H](Cc2ccccc2)NC(=O)[C@H](CCN)NC1=O)[C@@H](C)O (Octanoyl-[Dab]T[Dab][Dab][Dab][dF]T[Dab][Dab]T; lactam 4-C) [listing 1 of 2 here]
IC50 at 72 h [9]: > 500 µg/mL

CCCCCCCC(=O)N[C@@H](CCN)C(=O)N[C@H](C(=O)N[C@@H](CCN)C(=O)N[C@H]1CCNC(=O)[C@H]([C@@H](C)O)NC(=O)[C@H](CCN)NC(=O)[C@H](CCN)NC(=O)[C@H]([C@@H](C)O)NC(=O)[C@@H](Cc2ccccc2)NC(=O)[C@H](CCN)NC1=O)[C@@H](C)O (Octanoyl-[Dab]T[Dab][Dab][Dab][dF]T[Dab][Dab]T; lactam 4-C) [listing 2 of 2 here]
MIC [1]: ≤ 0.03 µg/mL
MIC [2]: 0.06 µg/mL (≈ 0.051 µM)
MIC [3]: ≤ 0.03 µg/mL
MIC [4]: 0.5 µg/mL (≈ 0.425 µM)
MIC [5]: 0.5 µg/mL (≈ 0.425 µM)
MIC [6]: 0.5 µg/mL (≈ 0.425 µM)
MIC [7]: 0.5 µg/mL (≈ 0.425 µM)
MIC [8]: 0.25 µg/mL (≈ 0.212 µM)

CC(C)CCCCC(=O)N[C@@H](CCN)C(=O)N[C@H](C(=O)N[C@@H](CCN)C(=O)N[C@H]1CCNC(=O)[C@H]([C@@H](C)O)NC(=O)[C@H](CCN)NC(=O)[C@H](CCN)NC(=O)[C@H]([C@@H](C)O)NC(=O)[C@@H](Cc2ccccc2)NC(=O)[C@H](CCN)NC1=O)[C@@H](C)O ({Heptanoyl(6-Me)}-[Dab]T[Dab][Dab][Dab][dF]T[Dab][Dab]T; lactam 4-C) [listing 1 of 2 here]
MIC [1]: 0.06 µg/mL (≈ 0.051 µM)
MIC [2]: ≤ 0.03 µg/mL
MIC [3]: ≤ 0.03 µg/mL
MIC [4]: 0.5 µg/mL (≈ 0.425 µM)
MIC [5]: 1 µg/mL (≈ 0.849 µM)
MIC [6]: 1 µg/mL (≈ 0.849 µM)
MIC [7]: 0.5 µg/mL (≈ 0.425 µM)
MIC [8]: 0.25 µg/mL (≈ 0.212 µM)

CCCCCCCC(=O)N[C@@H](CCN)C(=O)N[C@H](C(=O)N[C@@H](CCN)C(=O)N[C@H]1CCNC(=O)[C@H]([C@@H](C)O)NC(=O)[C@H](CCN)NC(=O)[C@H](CCN)NC(=O)[C@H]([C@@H](C)O)NC(=O)[C@@H](CCC)NC(=O)[C@H](CCN)NC1=O)[C@@H](C)O [listing 2 of 2 here]
MIC [1]: 0.25 µg/mL (≈ 0.221 µM)
MIC [2]: 0.5 µg/mL (≈ 0.443 µM)
MIC [3]: 0.5 µg/mL (≈ 0.443 µM)
MIC [4]: 2 µg/mL (≈ 1.77 µM)
MIC [5]: 1 µg/mL (≈ 0.885 µM)
MIC [6]: 1 µg/mL (≈ 0.885 µM)
MIC [7]: 4 µg/mL (≈ 3.54 µM)
MIC [8]: 4 µg/mL (≈ 3.54 µM)

CCCCCCCC(=O)N[C@@H](CCN)C(=O)N[C@H](C(=O)N[C@@H](CCN)C(=O)N[C@H]1CCNC(=O)[C@H]([C@@H](C)O)NC(=O)[C@H](CCN)NC(=O)[C@H](CCN)NC(=O)[C@H]([C@@H](C)O)NC(=O)[C@@H](CCCC)NC(=O)[C@H](CCN)NC1=O)[C@@H](C)O (Octanoyl-[Dab]T[Dab][Dab][Dab][dNle]T[Dab][Dab]T; lactam 4-C) [listing 2 of 2 here]
MIC [1]: 0.125 µg/mL (≈ 0.109 µM)
MIC [2]: 0.125 µg/mL (≈ 0.109 µM)
MIC [3]: 0.125 µg/mL (≈ 0.109 µM)
MIC [4]: 2 µg/mL (≈ 1.75 µM)
MIC [5]: 1 µg/mL (≈ 0.875 µM)
MIC [6]: 1 µg/mL (≈ 0.875 µM)
MIC [7]: 1 µg/mL (≈ 0.875 µM)
MIC [8]: 1 µg/mL (≈ 0.875 µM)

CCCCCCCC(=O)N[C@@H](CCN)C(=O)N[C@H](C(=O)N[C@@H](CCN)C(=O)N[C@H]1CCNC(=O)[C@H]([C@@H](C)O)NC(=O)[C@H](CCN)NC(=O)[C@H](CCN)NC(=O)[C@H]([C@@H](C)O)NC(=O)[C@@H](CC(C)C)NC(=O)[C@H](CCN)NC1=O)[C@@H](C)O (Octanoyl-[Dab]T[Dab][Dab][Dab][dL]T[Dab][Dab]T; lactam 4-C) [listing 2 of 2 here]
MIC [1]: 0.25 µg/mL (≈ 0.219 µM)
MIC [2]: 0.06 µg/mL (≈ 0.0525 µM)
MIC [3]: 0.25 µg/mL (≈ 0.219 µM)
MIC [4]: 2 µg/mL (≈ 1.75 µM)
MIC [5]: 0.5 µg/mL (≈ 0.437 µM)
MIC [6]: 1 µg/mL (≈ 0.875 µM)
MIC [7]: 1 µg/mL (≈ 0.875 µM)
MIC [8]: 1 µg/mL (≈ 0.875 µM)

CC(C)CCCCC(=O)N[C@@H](CCN)C(=O)N[C@H](C(=O)N[C@@H](CCN)C(=O)N[C@H]1CCNC(=O)[C@H]([C@@H](C)O)NC(=O)[C@H](CCN)NC(=O)[C@H](CCN)NC(=O)[C@H]([C@@H](C)O)NC(=O)[C@@H](Cc2ccccc2)NC(=O)[C@H](CCN)NC1=O)[C@@H](C)O ({Heptanoyl(6-Me)}-[Dab]T[Dab][Dab][Dab][dF]T[Dab][Dab]T; lactam 4-C) [listing 2 of 2 here]
IC50 at 72 h [9]: > 500 µg/mL
